{
  "source": "paper PMC5999115",
  "about": "“Anti-tumor activity of phenoxybenzamine and its inhibition of histone deacetylases” (PLoS ONE, 2018)",
  "assay_in_all_cases": "Oncotest CellTiter-Blue cell viability assay, 72 hours",
  "assay_type_in_all_cases": "cell-based, human",
  "key": {"MEXF UACC-257": {"tested_on": "MEXF UACC-257", "settings": "MEXF UACC-257; 10% FCS; study P495A", "procedure": "(§1) Further studies with varying drug concentrations on selected human cell lines, in most cases those studied in the NCI60 screen, were conducted by Oncotest GmbH laboratories, Freiburg, Germany; Oncotest is a division of Charles River Laboratories. The dissolution procedure for PBZ and the cell culture […] was 72 hours; anti-tumor activity was determined with the CellTiter-Blue® Cell Viability Assay, Promega, Mannheim, Germany. The 50% Inhibitory (IC50) concentrations were determined. The results are the average of duplicate assays. Paclitaxel was included as a reference compound to confirm the integrity of the assays. See S1 Appendix for further details.\n(§2) “Cell lines were routinely passaged once or twice weekly and maintained in culture for up to 20 passages. Cells were grown at 37°C in a humidified atmosphere with 5% CO2 in RPMI 1640 medium (25 mM HEPES, with L-glutamine, #FG1385, Biochrom, Berlin, Germany) supplemented with 10% (v/v) fetal calf serum (Sigma, Taufkirchen, Germany) and 0.1 mg/mL gentamicin (Life Technologies, Karlsruhe, Germany).”"}, "MMXF RPMI 8226": {"tested_on": "MMXF RPMI 8226", "procedure": "as §1, §2"}, "PRXF PC-3": {"tested_on": "PRXF PC-3", "procedure": "as §1, §2"}, "[1]": {"settings": "MMX RPMI8226, 1% FCS, study P495C"}, "[2]": {"settings": "MMX RPMI8226, 10% FCS, study P495A"}, "[3]": {"settings": "MMX RPMI8226, 10% FCS, study P495B"}, "[4]": {"settings": "PRXF PC-3, 10% FCS, study P495A"}, "[5]": {"settings": "PRXF PC-3, 10% FCS, study P495B"}},
  "data": [
    {"compound": "CC(COc1ccccc1)N(CCCl)Cc1ccccc1", "note": "(stereo not drawn) [PBZ, phenoxybenzamine]", "values": [
      {"measurement": "Test/Control (%) at Drug Concentration [uM] 1,0E-01", "setting": "MEXF UACC-257", "value": 101, "unit": "%"},
      {"measurement": "Test/Control (%) at Drug Concentration [uM] 1,0E-02", "setting": "MEXF UACC-257", "value": 101, "unit": "%"},
      {"measurement": "Test/Control (%) at Drug Concentration [uM] 3,2E+00", "setting": "MEXF UACC-257", "value": 109, "unit": "%"},
      {"measurement": "Test/Control (%) at Drug Concentration [uM] 3,2E+01", "setting": "MEXF UACC-257", "value": 106, "unit": "%"},
      {"measurement": "Test/Control (%) at Drug Concentration [uM] 3,2E-01", "setting": "MEXF UACC-257", "value": 104, "unit": "%"},
      {"measurement": "Test/Control (%) at Drug Concentration [uM] 3,2E-02", "setting": "MEXF UACC-257", "value": 113, "unit": "%"},
      {"measurement": "Test/Control (%) at Drug Concentration [uM] 3,2E-03", "setting": "MEXF UACC-257", "value": 103, "unit": "%"},
      {"measurement": "Percent cell growth in Oncotest screen with 10% FCS (72 hr incubation)", "setting": "MMXF RPMI 8226; 10 μM phenoxybenzamine, RPMI 8226", "value": 98, "unit": "%"},
      {"measurement": "IC50", "setting": "MMXF RPMI 8226; Homo sapiens, MMXF RPMI 8226 Myeloma, 1% FCS", "value": 44.4, "unit": "µM"},
      {"measurement": "Test/Control (%) at Drug Concentration [uM] 1,0E+00", "setting": "MMXF RPMI 8226; [1]", "value": 102, "unit": "%"},
      {"measurement": "Test/Control (%) at Drug Concentration [uM] 1,0E+01", "setting": "MMXF RPMI 8226; [1]", "value": 95, "unit": "%"},
      {"measurement": "Test/Control (%) at Drug Concentration [uM] 1,0E+02", "setting": "MMXF RPMI 8226; [1]", "value": 5, "unit": "%"},
      {"measurement": "Test/Control (%) at Drug Concentration [uM] 3,2E+00", "setting": "MMXF RPMI 8226; [1]", "value": 101, "unit": "%"},
      {"measurement": "Test/Control (%) at Drug Concentration [uM] 3,2E+01", "setting": "MMXF RPMI 8226; [1]", "value": 77, "unit": "%"},
      {"measurement": "Test/Control (%) at Drug Concentration [uM] 1,0E+00", "setting": "MMXF RPMI 8226; [2]", "value": 89, "unit": "%"},
      {"measurement": "Test/Control (%) at Drug Concentration [uM] 1,0E+01", "setting": "MMXF RPMI 8226; [2]", "value": 98, "unit": "%"},
      {"measurement": "Test/Control (%) at Drug Concentration [uM] 1,0E+02", "setting": "MMXF RPMI 8226; [2]", "value": 10, "unit": "%"},
      {"measurement": "Test/Control (%) at Drug Concentration [uM] 1,0E-01", "setting": "MMXF RPMI 8226; [2]", "value": 83, "unit": "%"},
      {"measurement": "Test/Control (%) at Drug Concentration [uM] 1,0E-02", "setting": "MMXF RPMI 8226; [2]", "value": 80, "unit": "%"},
      {"measurement": "Test/Control (%) at Drug Concentration [uM] 3,2E+00", "setting": "MMXF RPMI 8226; [2]", "value": 87, "unit": "%"},
      {"measurement": "Test/Control (%) at Drug Concentration [uM] 3,2E+01", "setting": "MMXF RPMI 8226; [2]", "value": 99, "unit": "%"},
      {"measurement": "Test/Control (%) at Drug Concentration [uM] 3,2E-01", "setting": "MMXF RPMI 8226; [2]", "value": 84, "unit": "%"},
      {"measurement": "Test/Control (%) at Drug Concentration [uM] 3,2E-02", "setting": "MMXF RPMI 8226; [2]", "value": 76, "unit": "%"},
      {"measurement": "Test/Control (%) at Drug Concentration [uM] 3,2E-03", "setting": "MMXF RPMI 8226; [2]", "value": 86, "unit": "%"},
      {"measurement": "Test/Control (%) at Drug Concentration [uM] 1,0E+00", "setting": "MMXF RPMI 8226; [3]", "value": 88, "unit": "%"},
      {"measurement": "Test/Control (%) at Drug Concentration [uM] 1,0E+01", "setting": "MMXF RPMI 8226; [3]", "value": 94, "unit": "%"},
      {"measurement": "Test/Control (%) at Drug Concentration [uM] 1,0E+02", "setting": "MMXF RPMI 8226; [3]", "value": 16, "unit": "%"},
      {"measurement": "Test/Control (%) at Drug Concentration [uM] 1,0E-01", "setting": "MMXF RPMI 8226; [3]", "value": 100, "unit": "%"},
      {"measurement": "Test/Control (%) at Drug Concentration [uM] 1,0E-02", "setting": "MMXF RPMI 8226; [3]", "value": 100, "unit": "%"},
      {"measurement": "Test/Control (%) at Drug Concentration [uM] 1,0E-03", "setting": "MMXF RPMI 8226; [3]", "value": 100, "unit": "%"},
      {"measurement": "Test/Control (%) at Drug Concentration [uM] 3,2E+00", "setting": "MMXF RPMI 8226; [3]", "value": 92, "unit": "%"},
      {"measurement": "Test/Control (%) at Drug Concentration [uM] 3,2E+01", "setting": "MMXF RPMI 8226; [3]", "value": 95, "unit": "%"},
      {"measurement": "Percent cell growth in Oncotest screen with 10% FCS (72 hr incubation)", "setting": "PRXF PC-3; 10 μM phenoxybenzamine, PC-3", "value": 86, "unit": "%"},
      {"measurement": "IC50", "setting": "PRXF PC-3; Homo sapiens, PRXF PC-3 Prostate, 1% FCS", "value": 29.8, "unit": "µM"},
      {"measurement": "Test/Control (%) at Drug Concentration [uM] 1,0E+00", "setting": "PRXF PC-3; PRXF PC-3, 1% FCS, study P495C", "value": 102, "unit": "%"},
      {"measurement": "Test/Control (%) at Drug Concentration [uM] 1,0E+01", "setting": "PRXF PC-3; PRXF PC-3, 1% FCS, study P495C", "value": 100, "unit": "%"},
      {"measurement": "Test/Control (%) at Drug Concentration [uM] 1,0E+02", "setting": "PRXF PC-3; PRXF PC-3, 1% FCS, study P495C", "value": 22, "unit": "%"},
      {"measurement": "Test/Control (%) at Drug Concentration [uM] 3,2E+00", "setting": "PRXF PC-3; PRXF PC-3, 1% FCS, study P495C", "value": 105, "unit": "%"},
      {"measurement": "Test/Control (%) at Drug Concentration [uM] 3,2E+01", "setting": "PRXF PC-3; PRXF PC-3, 1% FCS, study P495C", "value": 58, "unit": "%"},
      {"measurement": "Test/Control (%) at Drug Concentration [uM] 1,0E+00", "setting": "PRXF PC-3; [4]", "value": 86, "unit": "%"},
      {"measurement": "Test/Control (%) at Drug Concentration [uM] 1,0E+01", "setting": "PRXF PC-3; [4]", "value": 86, "unit": "%"},
      {"measurement": "Test/Control (%) at Drug Concentration [uM] 1,0E+02", "setting": "PRXF PC-3; [4]", "value": 52, "unit": "%"},
      {"measurement": "Test/Control (%) at Drug Concentration [uM] 1,0E-01", "setting": "PRXF PC-3; [4]", "value": 87, "unit": "%"},
      {"measurement": "Test/Control (%) at Drug Concentration [uM] 1,0E-02", "setting": "PRXF PC-3; [4]", "value": 83, "unit": "%"},
      {"measurement": "Test/Control (%) at Drug Concentration [uM] 3,2E+00", "setting": "PRXF PC-3; [4]", "value": 89, "unit": "%"},
      {"measurement": "Test/Control (%) at Drug Concentration [uM] 3,2E+01", "setting": "PRXF PC-3; [4]", "value": 82, "unit": "%"},
      {"measurement": "Test/Control (%) at Drug Concentration [uM] 3,2E-01", "setting": "PRXF PC-3; [4]", "value": 91, "unit": "%"},
      {"measurement": "Test/Control (%) at Drug Concentration [uM] 3,2E-02", "setting": "PRXF PC-3; [4]", "value": 87, "unit": "%"},
      {"measurement": "Test/Control (%) at Drug Concentration [uM] 3,2E-03", "setting": "PRXF PC-3; [4]", "value": 91, "unit": "%"},
      {"measurement": "Test/Control (%) at Drug Concentration [uM] 1,0E+00", "setting": "PRXF PC-3; [5]", "value": 89, "unit": "%"},
      {"measurement": "Test/Control (%) at Drug Concentration [uM] 1,0E+01", "setting": "PRXF PC-3; [5]", "value": 77, "unit": "%"},
      {"measurement": "Test/Control (%) at Drug Concentration [uM] 1,0E+02", "setting": "PRXF PC-3; [5]", "value": 49, "unit": "%"},
      {"measurement": "Test/Control (%) at Drug Concentration [uM] 1,0E-01", "setting": "PRXF PC-3; [5]", "value": 84, "unit": "%"},
      {"measurement": "Test/Control (%) at Drug Concentration [uM] 1,0E-02", "setting": "PRXF PC-3; [5]", "value": 88, "unit": "%"},
      {"measurement": "Test/Control (%) at Drug Concentration [uM] 1,0E-03", "setting": "PRXF PC-3; [5]", "value": 81, "unit": "%"},
      {"measurement": "Test/Control (%) at Drug Concentration [uM] 3,2E+00", "setting": "PRXF PC-3; [5]", "value": 92, "unit": "%"},
      {"measurement": "Test/Control (%) at Drug Concentration [uM] 3,2E+01", "setting": "PRXF PC-3; [5]", "value": 74, "unit": "%"}
    ]}
  ]
}
